In patent publication US20240327364A1, “THERAPEUTIC TARGETING OF GPR68 TO INDUCE FERROPTOSIS” (University Of Maryland, Baltimore, priority 2023, published 2024):

What was measured:
[1] = molecular target: T1, ABL1(Y253F)-phosphorylated (Homo sapiens, UniProt P00519, Y253F); assay: KinomeScan; type: binding; conditions: read-out: % Control
T1 construct: purchased DiscoveRx

ASK2 = molecular target: T2, ASK2 (Homo sapiens, UniProt O95382); assay: KinomeScan; type: binding; conditions: read-out: % Control
T2 construct: purchased DiscoveRx (Fremont, CA)
T2 sequence (O95382 whole entry): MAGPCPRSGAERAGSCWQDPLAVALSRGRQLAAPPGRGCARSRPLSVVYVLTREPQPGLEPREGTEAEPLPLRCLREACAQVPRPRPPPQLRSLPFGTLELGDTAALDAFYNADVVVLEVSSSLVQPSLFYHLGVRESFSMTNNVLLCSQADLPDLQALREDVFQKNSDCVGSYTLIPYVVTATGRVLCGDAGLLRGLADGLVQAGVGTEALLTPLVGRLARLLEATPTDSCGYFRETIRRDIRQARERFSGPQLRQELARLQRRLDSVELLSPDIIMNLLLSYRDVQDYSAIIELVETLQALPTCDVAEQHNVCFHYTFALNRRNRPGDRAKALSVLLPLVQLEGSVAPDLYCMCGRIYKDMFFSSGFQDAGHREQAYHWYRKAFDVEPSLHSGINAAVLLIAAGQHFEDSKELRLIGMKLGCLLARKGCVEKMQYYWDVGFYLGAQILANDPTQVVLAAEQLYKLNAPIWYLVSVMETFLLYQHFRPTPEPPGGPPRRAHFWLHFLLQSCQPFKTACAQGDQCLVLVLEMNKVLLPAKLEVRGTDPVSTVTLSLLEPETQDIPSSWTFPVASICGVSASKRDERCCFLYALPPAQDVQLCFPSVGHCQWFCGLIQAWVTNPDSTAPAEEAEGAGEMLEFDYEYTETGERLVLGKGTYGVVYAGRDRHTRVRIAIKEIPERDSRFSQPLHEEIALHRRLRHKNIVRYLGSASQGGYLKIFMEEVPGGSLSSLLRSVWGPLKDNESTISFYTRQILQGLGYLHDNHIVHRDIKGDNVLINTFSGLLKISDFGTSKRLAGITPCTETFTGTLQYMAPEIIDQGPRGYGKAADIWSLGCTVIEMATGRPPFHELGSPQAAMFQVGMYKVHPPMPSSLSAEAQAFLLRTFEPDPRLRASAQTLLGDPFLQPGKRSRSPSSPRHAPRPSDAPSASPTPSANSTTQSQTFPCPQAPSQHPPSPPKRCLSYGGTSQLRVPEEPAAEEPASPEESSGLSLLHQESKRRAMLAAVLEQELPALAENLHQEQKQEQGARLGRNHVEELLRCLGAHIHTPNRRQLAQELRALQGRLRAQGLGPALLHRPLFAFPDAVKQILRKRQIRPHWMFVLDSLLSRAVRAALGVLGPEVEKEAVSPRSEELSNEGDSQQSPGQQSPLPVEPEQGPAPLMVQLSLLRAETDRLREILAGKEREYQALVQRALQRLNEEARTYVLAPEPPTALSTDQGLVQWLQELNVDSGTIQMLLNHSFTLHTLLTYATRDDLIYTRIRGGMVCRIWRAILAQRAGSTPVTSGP

BRSK2 = molecular target: T3, BRSK2 (Homo sapiens, UniProt Q8IWQ3); assay: KinomeScan; type: binding; conditions: read-out: % Control
T3 construct: purchased DiscoveRx (KinomeScan service)

EPHB1 = molecular target: T4, EPHB1 (Homo sapiens, UniProt P54762); assay: KinomeScan; type: binding; conditions: read-out: % Control
T4 construct: purchased DiscoveRx (Fremont, CA)

EPHB2 = molecular target: T5, EPHB2 (Homo sapiens, UniProt P29323); assay: KinomeScan; type: binding; conditions: read-out: % Control
T5 construct: purchased DiscoveRx (Fremont, CA)

ERN1 = molecular target: T6, ERN1 (Homo sapiens, UniProt O75460); assay: KinomeScan; type: binding; conditions: read-out: % Control
T6 construct: purchased DiscoveRx (Fremont, CA)

FGFR3(G697C) = molecular target: T7, FGFR3(G697C) (Homo sapiens, UniProt P22607, G697C); assay: KinomeScan; type: binding; conditions: read-out: % Control
T7 construct: purchased DiscoveRx (Fremont, CA)

MAP3K1 = molecular target: T8, MAP3K1 (Homo sapiens, UniProt Q13233); assay: KinomeScan; type: binding; conditions: read-out: % Control
T8 construct: purchased DiscoveRx

MAPKAPK5 = molecular target: T9, MAPKAPK5 (Homo sapiens, UniProt Q8IW41); assay: KinomeScan; type: binding; conditions: read-out: % Control
T9 construct: purchased DiscoveRx (Fremont, CA)

MARK1 = molecular target: T10, MARK1 (Homo sapiens, UniProt Q9P0L2); assay: KinomeScan; type: binding; conditions: read-out: % Control
T10 construct: purchased DiscoveRx (Fremont, CA)

MST1 = molecular target: T11, MST1 (Homo sapiens, UniProt Q13043); assay: KinomeScan; type: binding; conditions: read-out: % Control
T11 construct: purchased DiscoveRx
T11 sequence (Q13043 whole entry): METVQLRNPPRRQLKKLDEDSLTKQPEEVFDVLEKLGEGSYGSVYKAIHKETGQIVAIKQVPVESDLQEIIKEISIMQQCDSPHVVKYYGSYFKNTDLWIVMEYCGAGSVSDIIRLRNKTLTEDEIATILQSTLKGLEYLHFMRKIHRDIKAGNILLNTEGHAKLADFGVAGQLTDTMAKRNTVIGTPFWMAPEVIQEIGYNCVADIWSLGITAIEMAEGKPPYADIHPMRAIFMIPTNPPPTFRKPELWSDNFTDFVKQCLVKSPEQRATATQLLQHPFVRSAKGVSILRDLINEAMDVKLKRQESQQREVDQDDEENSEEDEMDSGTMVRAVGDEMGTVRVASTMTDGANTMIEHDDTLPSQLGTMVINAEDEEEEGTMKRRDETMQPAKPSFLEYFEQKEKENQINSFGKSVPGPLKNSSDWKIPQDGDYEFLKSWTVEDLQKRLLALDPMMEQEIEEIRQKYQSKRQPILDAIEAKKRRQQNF

MST3 = molecular target: T12, MST3 (Homo sapiens, UniProt Q9Y6E0); assay: KinomeScan; type: binding; conditions: read-out: % Control
T12 construct: purchased DiscoveRx

MYLK2 = molecular target: T13, MYLK2 (Homo sapiens, UniProt Q9H1R3); assay: KinomeScan; type: binding; conditions: read-out: % Control
T13 construct: purchased DiscoveRx

PFCDPK1(P. falciparum) = molecular target: T14, PFCDPK1(P. falciparum) (Plasmodium falciparum, UniProt P62344); assay: KinomeScan; type: binding; conditions: read-out: % Control
T14 construct: purchased DiscoveRx (Fremont, CA)

PIK3CA(E545A) = molecular target: T15, PIK3CA(E545A) (Homo sapiens, UniProt P42336, E545A); assay: KinomeScan; type: binding; conditions: read-out: % Control
T15 construct: purchased DiscoveRx (Fremont, CA)

PKMYT1 = molecular target: T16, PKMYT1 (Homo sapiens, UniProt Q99640); assay: KinomeScan; type: binding; conditions: read-out: % Control
T16 construct: purchased DiscoveRx (Fremont, CA)

PLK4 = molecular target: T17, PLK4 (Homo sapiens, UniProt O00444); assay: KinomeScan; type: binding; conditions: read-out: % Control
T17 construct: purchased DiscoveRx (Fremont, CA)

TAK1 = molecular target: T18, TAK1 (Homo sapiens, UniProt O43318); assay: KinomeScan; type: binding; conditions: read-out: % Control
T18 construct: purchased DiscoveRx (Fremont, CA)

TAOK1 = molecular target: T19, TAOK1 (Homo sapiens, UniProt Q7L7X3); assay: KinomeScan; type: binding; conditions: read-out: % Control
T19 construct: purchased DiscoveRx (Fremont, CA)
T19 sequence (Q7L7X3 whole entry): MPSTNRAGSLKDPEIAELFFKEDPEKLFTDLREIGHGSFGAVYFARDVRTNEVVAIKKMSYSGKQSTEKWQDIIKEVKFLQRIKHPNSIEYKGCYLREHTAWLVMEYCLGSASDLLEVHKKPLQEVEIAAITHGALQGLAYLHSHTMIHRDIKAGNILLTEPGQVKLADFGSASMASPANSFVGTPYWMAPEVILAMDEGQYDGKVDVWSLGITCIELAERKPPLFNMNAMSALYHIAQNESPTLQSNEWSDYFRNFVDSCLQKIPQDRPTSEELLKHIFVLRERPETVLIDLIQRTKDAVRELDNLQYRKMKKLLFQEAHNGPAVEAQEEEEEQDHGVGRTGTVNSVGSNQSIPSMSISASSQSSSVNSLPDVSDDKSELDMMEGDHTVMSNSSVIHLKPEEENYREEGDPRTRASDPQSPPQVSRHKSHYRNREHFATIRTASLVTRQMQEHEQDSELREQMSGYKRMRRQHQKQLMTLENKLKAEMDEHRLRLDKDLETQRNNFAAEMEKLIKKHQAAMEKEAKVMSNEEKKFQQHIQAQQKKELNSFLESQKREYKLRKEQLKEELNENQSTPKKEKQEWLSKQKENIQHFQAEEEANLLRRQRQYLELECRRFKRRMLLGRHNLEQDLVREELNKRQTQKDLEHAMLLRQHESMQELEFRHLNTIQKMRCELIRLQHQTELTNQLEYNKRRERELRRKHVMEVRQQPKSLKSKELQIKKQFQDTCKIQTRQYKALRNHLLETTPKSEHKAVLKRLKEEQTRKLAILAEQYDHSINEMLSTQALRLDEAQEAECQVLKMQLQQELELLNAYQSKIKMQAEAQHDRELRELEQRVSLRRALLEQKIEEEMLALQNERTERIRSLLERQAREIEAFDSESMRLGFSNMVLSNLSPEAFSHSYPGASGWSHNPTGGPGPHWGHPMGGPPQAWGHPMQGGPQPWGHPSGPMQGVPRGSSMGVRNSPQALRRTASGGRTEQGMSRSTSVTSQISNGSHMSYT

TGFBR1 = molecular target: T20, TGFBR1 (Homo sapiens, UniProt P36897); assay: KinomeScan; type: binding; conditions: read-out: % Control
T20 construct: purchased DiscoveRx (Fremont, CA)
T20 sequence (P36897 34-503): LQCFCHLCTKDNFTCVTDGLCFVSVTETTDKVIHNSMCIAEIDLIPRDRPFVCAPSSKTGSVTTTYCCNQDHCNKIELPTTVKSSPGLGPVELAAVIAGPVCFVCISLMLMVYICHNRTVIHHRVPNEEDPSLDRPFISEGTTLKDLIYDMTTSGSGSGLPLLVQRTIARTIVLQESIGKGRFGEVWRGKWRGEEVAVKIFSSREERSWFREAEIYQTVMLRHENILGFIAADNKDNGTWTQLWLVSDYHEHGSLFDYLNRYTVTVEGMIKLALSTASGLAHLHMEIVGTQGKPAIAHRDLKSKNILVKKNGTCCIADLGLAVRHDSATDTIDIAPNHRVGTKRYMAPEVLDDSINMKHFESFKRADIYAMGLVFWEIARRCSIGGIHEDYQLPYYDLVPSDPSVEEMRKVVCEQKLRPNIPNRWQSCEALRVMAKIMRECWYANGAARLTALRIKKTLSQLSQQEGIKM

C3aR = molecular target: T21, C3aR (Homo sapiens, UniProt Q16581); assay: GPCR Profiler; type: cell-based
T21 construct: host or cells: Chem-1 cells with promiscuous Gα15
T21 sequence (Q16581 whole entry, species assumed): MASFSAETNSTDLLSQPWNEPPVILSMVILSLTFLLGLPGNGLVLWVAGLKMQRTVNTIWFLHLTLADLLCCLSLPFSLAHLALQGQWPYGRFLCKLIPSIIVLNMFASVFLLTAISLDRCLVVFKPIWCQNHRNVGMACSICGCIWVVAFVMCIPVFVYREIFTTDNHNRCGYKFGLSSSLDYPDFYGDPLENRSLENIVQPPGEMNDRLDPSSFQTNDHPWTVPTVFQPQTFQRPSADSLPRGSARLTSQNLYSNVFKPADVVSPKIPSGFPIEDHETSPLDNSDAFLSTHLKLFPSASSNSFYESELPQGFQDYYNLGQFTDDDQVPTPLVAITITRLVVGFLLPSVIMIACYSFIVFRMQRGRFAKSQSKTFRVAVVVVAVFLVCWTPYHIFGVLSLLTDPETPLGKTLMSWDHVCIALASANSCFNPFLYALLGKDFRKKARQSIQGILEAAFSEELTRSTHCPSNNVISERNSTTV

GPR39 = molecular target: T22, GPR39 (Homo sapiens, UniProt O43194); assay: GPCR Profiler; type: cell-based
T22 construct: host or cells: Chem-1 cells expressing Gα15
T22 sequence (O43194 whole entry): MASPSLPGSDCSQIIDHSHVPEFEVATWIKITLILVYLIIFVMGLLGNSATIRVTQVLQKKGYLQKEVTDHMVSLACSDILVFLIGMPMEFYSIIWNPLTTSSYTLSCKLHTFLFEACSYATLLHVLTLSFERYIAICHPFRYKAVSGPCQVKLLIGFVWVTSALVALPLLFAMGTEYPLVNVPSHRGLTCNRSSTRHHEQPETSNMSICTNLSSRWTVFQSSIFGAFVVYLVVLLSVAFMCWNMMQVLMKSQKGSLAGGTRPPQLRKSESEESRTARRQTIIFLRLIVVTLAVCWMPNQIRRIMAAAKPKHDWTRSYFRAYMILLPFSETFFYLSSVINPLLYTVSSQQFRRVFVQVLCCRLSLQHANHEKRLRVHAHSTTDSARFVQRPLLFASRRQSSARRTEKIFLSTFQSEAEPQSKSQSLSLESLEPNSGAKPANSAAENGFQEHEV

S1P5 = molecular target: T23, S1P5 (Homo sapiens, UniProt Q9H228); assay: GPCR Profiler; type: cell-based
T23 construct: host or cells: Chem-1 cells with Gα15
T23 sequence (Q9H228 whole entry, species assumed): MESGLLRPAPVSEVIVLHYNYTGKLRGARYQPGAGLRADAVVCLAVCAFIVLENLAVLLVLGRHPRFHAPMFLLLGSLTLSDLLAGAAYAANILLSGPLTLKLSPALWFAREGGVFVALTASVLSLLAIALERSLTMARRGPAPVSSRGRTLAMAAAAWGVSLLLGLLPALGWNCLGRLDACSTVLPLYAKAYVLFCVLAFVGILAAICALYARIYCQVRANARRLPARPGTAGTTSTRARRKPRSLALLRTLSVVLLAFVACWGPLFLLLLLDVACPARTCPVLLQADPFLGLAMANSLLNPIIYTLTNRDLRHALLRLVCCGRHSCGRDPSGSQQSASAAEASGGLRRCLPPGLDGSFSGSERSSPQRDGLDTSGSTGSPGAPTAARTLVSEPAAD

TRH = molecular target: T24, TRH (Homo sapiens, UniProt P34981); assay: GPCR Profiler; type: cell-based
T24 construct: host or cells: Chem-1 cells with Gα15
T24 sequence (P34981 whole entry): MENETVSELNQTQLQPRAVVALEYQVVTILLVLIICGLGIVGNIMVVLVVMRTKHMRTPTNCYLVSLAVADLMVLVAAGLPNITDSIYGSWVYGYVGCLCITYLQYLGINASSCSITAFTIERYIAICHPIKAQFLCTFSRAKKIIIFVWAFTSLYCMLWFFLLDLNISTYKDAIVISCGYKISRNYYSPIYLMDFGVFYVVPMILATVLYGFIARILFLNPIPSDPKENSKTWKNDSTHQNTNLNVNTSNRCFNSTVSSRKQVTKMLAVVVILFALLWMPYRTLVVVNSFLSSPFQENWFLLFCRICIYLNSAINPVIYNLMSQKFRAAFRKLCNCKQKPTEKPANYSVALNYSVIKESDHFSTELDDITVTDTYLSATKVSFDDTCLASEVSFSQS

U138 spheroids = assay: GBM spheroid assay; type: cell-based, human
Description: One thousand cells per well were plated in an ultra-low attachment, round-bottomed, 96-well plate, and spheroids were allowed to form for 3 days. Wells were then exposed to concentrations of vehicle, OGM2 or TMZ or a combination for 3 days. Spheroids were imaged in brightfield at 10× using z-stacks that were collapsed into z-projections in the Gen5 software using the LionheartFx (BioTek™). Automated measurements of the spheroid area were obtained using Gen5 software.
Tumor spheroid cultures are a more physiological model of tumor growth than typical 2D cell culture. Temozolomide sensitive U87 (FIG. 20A) and Temozolomide insensitive U138 (FIG. 20B) glioblastoma cell lines were plated in low attachment round bottom 96-well plates and allowed to form tumor spheroids for 3 days (T0). At T0, spheroids were imaged using Lionheart™ (HCS) High-Content Imaging Systems (Biotek™) and then were exposed to increasing doses of either Temozolomide or OGM2. After 5 days of treatment the spheroids were imaged again (T5). The size (area) of the spheroids after 5 days of treatment was quantified, and the average size of the spheroids at TO is depicted in red.

[2] = system: ALI induced by HTV, LPS and both; assay: HTV mechanical ventilation / LPS acute lung injury; type: in vivo, C57Bl mice
Source text: FIG. 38A through FIG. 38D: High-tidal volume (HTV) mechanical ventilation causes ALI and exacerbates ALI caused by LPS (“two-hit”) in C57Bl mice, and OGM2 attenuates these effects. […] Lungs from mice treated with OGM2 are marked with “+”. […] Here, OGM and OGM8345=OGM2.

CCc1ccc2c(c1)C1(NN=C(c3cccc4ccccc34)S1)C(=O)N2 (stereo not drawn) [OGM1, 5-ethyl-5′-naphthalen-1-ylspiro[1H-indole-3,2′-3H-1,3,4-thiadiazole]-2-one]
remaining binding at 10 µM [1]: 80%
remaining binding at 10 µM (ASK2): 100%
remaining binding at 10 µM (BRSK2): 100%
remaining binding at 10 µM (EPHB1): 100%
remaining binding at 10 µM (EPHB2): 100%
remaining binding at 10 µM (ERN1): 72%
remaining binding at 10 µM (FGFR3(G697C)): 99%
remaining binding at 10 µM (MAP3K1): 72%
remaining binding at 10 µM (MAPKAPK5): 86%
remaining binding at 10 µM (MARK1): 100%
remaining binding at 10 µM (MST1): 100%
remaining binding at 10 µM (MST3): 61%
remaining binding at 10 µM (MYLK2): 100%
remaining binding at 10 µM (PFCDPK1(P. falciparum)): 95%
remaining binding at 10 µM (PIK3CA(E545A)): 81%
remaining binding at 10 µM (PKMYT1): 78%
remaining binding at 10 µM (PLK4): 71%
remaining binding at 10 µM (TAK1): 72%
remaining binding at 10 µM (TAOK1): 83%
remaining binding at 10 µM (TGFBR1): 100%
Antagonism (C3aR; 10 uM): 5.4
Agonism (C3aR; 12.5 uM): 0.2
Antagonism (GPR39; 10 uM): 5.4
Agonism (GPR39; 12.5 uM): 0
Antagonism (S1P5; 10 uM): 0.9
Agonism (S1P5; 12.5 uM): 1.8
Antagonism (TRH; 10 uM): 1.4
Agonism (TRH; 12.5 uM): 0.1

CCc1ccc2c(c1)C1(NN=C(c3ccccc3)S1)C(=O)N2 (stereo not drawn) [OGM2]
growth of 3D spheroids (U138 spheroids): significantly decreased the growth of U138 3D spheroids
lung vascular leak (Evans blue) ([2]; OGM2 40 mg/kg ip 15 minutes before HTV): significantly attenuated lung vascular leak
BAL cell count ([2]; mouse, in vivo): significantly attenuated the rise
BAL protein concentration ([2]; mouse, in vivo): significantly attenuated the rise
inflammatory cytokine mRNA expression ([2]; mouse, in vivo): blunted the rise
